What all share (assay type): in vivo
One series concerns broccoli sprouts. Description: L-tyrosine or L-phenylalanine addition effect 1, broccoli sprouts. As to conditions: for kaempferol content: aqueous solution 25-400 mg/L, 10 ml/day for 7 days, dark; for kaempferol content / quercetin content: 21 vol% oxygen; for quercetin content: regardless of the addition. Here is the method: (§1) The amount of kaempferol and quercetin was measured after all of the glycosides of kaempferol and quercetin were hydrolyzed and converted into aglycones. The actual procedure was as follows. After each sample was milled, 2.0 g of the milled product was weighed. After 40 mL of 70% ethanol was added, the sample was suspended with a Polytron homogenizer at room temperature at 20.000 rpm for 1 minute. 1 mL of the suspension was dispensed and weighed into a glass test tube, and 1 mL of 2 N hydrochloric acid was added. After being mixed with a vortex, the mixture was heated at 100° C. for 30 minutes with a heat block. After heating was completed, the resulting product was cooled with ice for at least 5 minutes. After cooling, 5 mL of hexane was added, and the mixture was shaken horizontally 20 times. After centrifugation at 3.000 rpm for 5 minutes at 4° C. with a cooled centrifuge, the upper layer was discarded. 5 mL of ethyl acetate was added, and the mixture was shaken horizontally with a shaker at room temperature at 250 rpm for 10 minutes. After centrifugation with a large cooled centrifuge at 4° C. at 3.000 rpm for 5 minutes, the upper layer was collected in a glass test tube for drying. 5 mL of ethyl acetate was added again to the lower layer, and the mixture was shaken horizontally with a shaker at room temperature at 250 rpm for 10 minutes. After centrifugation at 3.000 rpm at 4° C. for 5 minutes, the upper layer was collected in a glass test tube for drying. The collected upper layer was dried with nitrogen at 60° C. with a nitrogen spray dryer. After drying was complete, 1 mL of an aqueous solution of 70% ethanol was added, and the mixture was treated with an ultrasonic generator for 1 minute to dissolve it with a vortex. After being passed through a 0.45-µm filter, the solution was subjected to HPLC to perform KMP aglycone analysis, thereby determining the amount of KMP aglycones.
(§2) Aqueous solutions containing L-phenylalanine in a concentration of 25, 50, 100, 200, or 400 mg/L, aqueous solutions containing L-tyrosine in a concentration of 25, 50, 100, 200, or 400 mg/L, and aqueous solutions containing both L-tyrosine and L-phenylalanine in a concentration of 25, 50, 100, 200, or 400 mg/L were prepared. As test plants, radish sprouts and broccoli sprouts were prepared. The test plants were given one of the aqueous solutions in an amount of 10 ml/day for 7 days and grown in the dark in an oxygen concentration of 21 vol%. After 7 days, the content of kaempferol and quercetin was measured for each test plant in the same manner as in section B1-2 above. […] Additionally, quercetin was not detected in broccoli sprouts regardless of the addition of L-tyrosine and L-phenylalanine.

The subject of series [1] is radish sprouts. Description: L-tyrosine or L-phenylalanine addition effect 1, radish sprouts. The following applies: for effect on the quercetin content / kaempferol content: 21 vol% oxygen; for kaempferol content: aqueous solution 25-400 mg/L, 10 ml/day for 7 days, dark. Here is the method:
as §1, §2

Series [2] deals with radish sprouts. Description: L-tyrosine or L-phenylalanine addition effect 2, radish sprouts at 21 or 17.5 vol% oxygen. The following applies: 25 or 50 mg/L, 7 days; for kaempferol content: in every oxygen concentration (21 or 17.5 vol%); for rate of increase in the kaempferol content: low-oxygen concentration (17.5 vol%). How it is done: as §1
Aqueous solutions containing L-phenylalanine in a concentration of 25 or 50 mg/L, and aqueous solutions containing L-tyrosine in a concentration of 25 or 50 mg/L were prepared. As a test plant, radish sprouts were prepared. The test plant was given one of the aqueous solution in an amount of 10 ml/day for 7 days and grown in the dark in an oxygen concentration of 21 vol% or 17.5 vol%. After 7 days, the content of kaempferol and quercetin was measured in the same manner as in section B1-2 above.

`N[C@@H](Cc1ccccc1)C(=O)O` [L-phenylalanine]: the kaempferol content result in the series on broccoli sprouts, in the series on radish sprouts [1] and with radish sprouts [2] was “increased” in each case. For the same compound, the quercetin content result in the series with broccoli sprouts (7 days) was “not detected”. Also, in the series with radish sprouts [1] (25-400 mg/L, 7 days), the “effect on the quercetin content” value was “no significant effect”. Moreover, in the series on radish sprouts [2], the “rate of increase in the kaempferol content” value is on record as “significantly increased”.
Turning to `N[C@@H](Cc1ccc(O)cc1)C(=O)O` [L-tyrosine], the “effect on plant growth (total length and weight)” value in the series with broccoli sprouts (25-400 mg/L, 7 days) was “no clear effect”; with radish sprouts [1] (25-400 mg/L, 7 days), “no clear effect”; in the series with radish sprouts [2] (21 or 17.5 vol% oxygen) it was “no clear effect”. The kaempferol content result with broccoli sprouts, in the series on radish sprouts [1] and in the series on radish sprouts [2] was “increased” throughout. In the series on broccoli sprouts (7 days), the quercetin content result is “not detected”. Also, the “effect on the quercetin content” value in the series on radish sprouts [1] (25-400 mg/L, 7 days) is “no significant effect”. In addition, in the series on radish sprouts [2], the “rate of increase in the kaempferol content” value is “significantly increased”.
